Assay results reported in US20260055066A1, “CRYSTALLINE FORM OF PYRIMIDINE-4-CARBOXAMIDE COMPOUND AND ORAL PHARMACEUTICAL FORMULATION CONTAINING SAME” (J2H BIOTECH INC., priority 2022, published 2026).
Like-named read-outs stand apart in the source and are kept apart here.

Key:
[1] = Comparative pharmacokinetic test of the formulation in beagle dog, Experimental Example 8; assay type: in vivo; conditions: for AUC(0-t) / Cmax / Tmax / half-life / Vd/F / CL/F: beagle, dog, plasma; for Vd/F: read-out: Vz(terminal)/F; for CL/F: CL(inf)/F
Description: By applying the conditions of Preparation Example 10, tablets containing 25, 50, and 100 mg of the crystalline solid of chemical formula 1 as a pharmaceutical raw material were manufactured. An experiment was conducted to analyze the pharmacokinetic characteristics of the manufactured tablets after oral administration to a beagle dog.
The compound of chemical formula 1 was administered orally to a beagle dog as a single dose of 25, 50, and 100 mg tablets/head, orally as a single dose of 25 mg liquid/head, and intravenously as a single dose of 2 mg/kg. Blood samples were collected before (0) and 15, 30 min, 1, 1.5, 2, 4, 6, 8, 10, 16, and 24 hr after administration of the test substance to measure the blood concentration of the compound of chemical formula 1.
The preparation for single oral administration in liquid/head was prepared by homogeneously suspending 275 mg of the compound of chemical formula 1 in 220 ml of pre-prepared 2.5% HP-PCD (sterile water solution) to obtain 1.25 mg/ml. In addition, the preparation for single intravenous administration was prepared by dissolving 300 mg of the compound of chemical formula 1 in 150 ml of pre-prepared 10% HP-PCD (sterile water solution) to obtain 2 mg/ml.

[2] = Water solubility / BCS classification of the compound of chemical formula 1; assay type: physicochemical
[3] = Stability evaluation of the crystalline form of Example 1 (ICH long-term and accelerated storage, HPLC; PXRD); assay type: physicochemical; conditions: for Content / Total impurities: HPLC
Description: The stability of the crystalline solid of the compound of chemical formula 1 prepared by Example 1 was evaluated. According to the ICH guideline, the stability test was conducted under long-term storage (25±2° C., 60±5% RH) and accelerated (40±2° C., 75±5% RH) conditions. The analysis was performed using HPLC to evaluate the change in content and the occurrence of impurities, and the results are shown in Table 1 below.
For a BCS Class 2 substance such as the compound of chemical formula 1, it is very important that the crystalline form remains stable under storage conditions. The more insoluble a substance is, the greater the impact of changes in crystallinity on the quality of the final product is. The change in the crystalline form causes changes in hygroscopicity, stability, dissolution, etc.

[4] = iv, 2 mg/kg, 2 mg/kg solution (iv), 10% HP-PCD, single dose, beagle dog plasma
[5] = po, 25 mg, 25 mg solution (po), per head, suspended in 2.5% HP-PCD, single dose, beagle dog plasma
[6] = po, 25 mg, 25 mg tablet (po), per head, single dose, beagle dog plasma
[7] = po, 50 mg, 50 mg tablet (po), per head, single dose, beagle dog plasma
[8] = po, 100 mg, 100 mg tablet (po), per head, single dose, beagle dog plasma
[9] = accelerated 40±2°C, 75±5% RH, 1 months
[10] = accelerated 40±2°C, 75±5% RH, 3 months
[11] = accelerated 40±2°C, 75±5% RH, 6 months
[12] = accelerated 40±2°C, 75±5% RH, Initial
[13] = long-term storage 25±2°C, 60±5% RH, 1 months
[14] = long-term storage 25±2°C, 60±5% RH, 3 months
[15] = long-term storage 25±2°C, 60±5% RH, 6 months
[16] = long-term storage 25±2°C, 60±5% RH, 12 months
[17] = long-term storage 25±2°C, 60±5% RH, Initial

## C[C@@H]1CN(c2ccc(S(C)(=O)=O)cc2F)CCN1c1nccc(C(=O)NC2C3CC4CC2CC(O)(C4)C3)n1 (stereo partly drawn) [chemical formula 1, 2-((R)-4-(2-fluoro-4-(methylsulfonyl)phenyl)-2-methylpiperazin-1-yl)-N-((1R,2s,3S,5S,7S)-5-hydroxyadamantan-2-yl)pyrimidine-4-carboxamide]
[1]; 2 mg/kg solution (iv), 10% HP-PCD, single dose, beagle dog plasma
  CL(inf)/F: 5.5 mL/min/kg
[1]; 25 mg solution (po), per head, single dose, beagle dog
  BA: 45.82 % F
[1]; 25 mg tablet (po), per head, single dose, beagle dog
  BA: 44.31 % F
[1]; 25 mg/head po, beagle dog
  average absorption (AUClast) of the tablet administration group relative to the liquid administration group: 96.7%
[1]; 50 mg tablet (po), per head, single dose, beagle dog
  BA: 35.37 % F
[1]; 100 mg tablet (po), per head, single dose, beagle dog
  BA: 25.40 % F
[1]; [4]
  AUC(0-t): 6180 ng·h/mL
  Cmax: 1160 ng/mL
  Tmax: 0.25 h
  half-life: 4.07 h
[1]; [5]
  AUC(0-t): 3370 ng·h/mL
  Cmax: 393 ng/mL
  Tmax: 1.5 h
  half-life: 6.32 h
  Vd/F: 58.5 L
  CL/F: 6.9 L/h
[1]; [6]
  AUC(0-t): 3260 ng·h/mL
  Cmax: 420 ng/mL
  Tmax: 2 h
  half-life: 4.42 h
  Vd/F: 49.4 L
  CL/F: 8.04 L/h
[1]; [7]
  AUC(0-t): 5210 ng·h/mL
  Cmax: 666 ng/mL
  Tmax: 2 h
  half-life: 5.29 h
  Vd/F: 79.3 L
  CL/F: 10.2 L/h
[1]; [8]
  AUC(0-t): 7480 ng·h/mL
  Cmax: 899 ng/mL
  Tmax: 1.75 h
  half-life: 6.89 h
  Vd/F: 119 L
  CL/F: 12.8 L/h
[2]
  Biopharmaceutics classification system (BCS) class: Class 2 (high permeability, low solubility)
  solubility according to pH: does not have the characteristic of improving solubility according to pH
[2]; water
  solubility: ≤ 1 µg/mL
[3]; [9]
  Content: 99.6%
  Total impurities: 0.43%
[3]; [10]
  Content: 100.8%
  Total impurities: 0.44%
[3]; [11]
  Content: 100.0%
  Total impurities: 0.42%
[3]; [12]
  Content: 99.9%
  Total impurities: 0.34%
[3]; [13]
  Content: 99.5%
  Total impurities: 0.43%
[3]; [14]
  Content: 99.3%
  Total impurities: 0.41%
[3]; [15]
  Content: 100.5%
  Total impurities: 0.43%
[3]; [16]
  Content: 99.7%
  Total impurities: 0.45%
[3]; [17]
  Content: 99.9%
  Total impurities: 0.34%
[3]; stored 3, 6 and 12 months (12 months long-term only)
  crystalline form (PXRD) of stored stability samples: the crystalline form did not change
